Data reported in patent US7767659B2, “Synthesis of naturally occurring ecteinascidins and related compounds” (Pharma Mar, S.A., priority 2002, dated 2010).

Key:
HeLa-APL = assay: Inhibition of cells growth by colorimetric assay (SRB); conditions: Homo sapiens, 48 h; for GI50: read-out: HELA-APL GI50; for CC50: read-out: HELA-APL LC50
How it was run: (§1)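 Colorimetric SRB read (490 nm) on triplicate wells after 48 h at 37 °C, 5% CO2. Dose range 10 to 10^−8 μg/ml; 5×10^3 cells/well pre-attached 18 h.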

PANC-1 = assay: as above; conditions: Homo sapiens, PANC-1, 48 h; for GI50: read-out: PANC-1 GI50; for CC50: read-out: PANC-1 LC50; for IC (TGI): read-out: PANC-1 TGI
How it was run: as §1

SK-MEL-28 = assay: as above; conditions: Homo sapiens, SK-MEL-28, 48 h; for GI50: read-out: MEL-28 GI50; for CC50: read-out: MEL-28 LC50; for IC (TGI): read-out: MEL-28 TGI
How it was run: as §1

DU-145 = assay: as above; conditions: Homo sapiens, DU-145, 48 h; for GI50: read-out: DU145 GI50; for CC50: read-out: DU145 LC50; for IC (TGI): read-out: DU145 TGI
How it was run: as §1

LNCaP = assay: as above; conditions: Homo sapiens, LNCaP, 48 h; for GI50: read-out: LNCAP GI50; for CC50: read-out: LNCAP LC50; for IC (TGI): read-out: LNCAP TGI
How it was run: as §1

IGROV-1 = assay: as above; conditions: Homo sapiens, IGROV-1, 48 h; for GI50: read-out: IGROV GI50; for CC50: read-out: IGROV LC50; for IC (TGI): read-out: IGROV TGI
How it was run: as §1

LoVo-Dox = assay: as above; conditions: Homo sapiens, 48 h; for GI50: read-out: LOVO-DOX GI50; for CC50: read-out: LOVO-DOX LC50; for IC (TGI): read-out: LOVO-DOX TGI
How it was run: as §1

SK-BR-3 = assay: as above; conditions: Homo sapiens, SK-BR-3, 48 h; for GI50: read-out: SK-BR3 GI50; for CC50: read-out: SK-BR3 LC50; for IC (TGI): read-out: SK-BR3 TGI
How it was run: as §1

K-562 = assay: as above; conditions: Homo sapiens, K562, 48 h; for GI50: read-out: K562 GI50; for CC50: read-out: K562 LC50; for IC (TGI): read-out: K562 TGI
How it was run: as §1

IGROV-ET = assay: as above; conditions: Homo sapiens, 48 h; for GI50: read-out: IGROV-ET GI50; for CC50: read-out: IGROV-ET LC50; for IC (TGI): read-out: IGROV-ET TGI
How it was run: as §1

HeLa = assay: as above; conditions: Homo sapiens, HeLa, 48 h; for GI50: read-out: HELA GI50; for CC50: read-out: HELA LC50; for IC (TGI): read-out: HELA TGI
How it was run: as §1

HT-29 = assay: cells; conditions: Homo sapiens, HT-29, 48 h; for GI50: read-out: HT29 GI50; for CC50: read-out: HT29 LC50; for IC (TGI): read-out: HT29 TGI
How it was run: as §1

LoVo = assay: cells; conditions: Homo sapiens, LoVo, 48 h; for GI50: read-out: LOVO GI50; for CC50: read-out: LOVO LC50; for IC (TGI): read-out: LOVO TGI
How it was run: as §1

A-549 = assay: cells; conditions: Homo sapiens, A549, 48 h; for GI50: read-out: A549 GI50; for CC50: read-out: A549 LC50; for IC (TGI): read-out: A549 TGI
How it was run: as §1

C=CCN1[C@@H]2c3c(cc(C)c(OC)c3O)C[C@H]1[C@H](C#N)N1C2[C@@H]2SC[C@]3(NCCc4c3[nH]c3ccc(OC)cc43)C(=O)OC[C@H]1c1c3c(c(C)c(OC(C)=O)c12)OCO3 (some centres unmarked) [compound 56]
GI50 (HeLa-APL): 0.0259 µM
CC50 (HeLa-APL): 0.204 µM
IC (TGI) (HeLa-APL; read-out: HELA-APL TGI): 0.0583 µM
GI50 (PANC-1): 0.0902 µM
CC50 (PANC-1): 12 µM
IC (TGI) (PANC-1): 0.953 µM
GI50 (SK-MEL-28): 0.0263 µM
CC50 (SK-MEL-28): 0.0914 µM
IC (TGI) (SK-MEL-28): 0.049 µM
GI50 (DU-145): 0.041 µM
CC50 (DU-145): 12 µM
IC (TGI) (DU-145): 0.101 µM
GI50 (LNCaP): 0.0122 µM
CC50 (LNCaP): 0.0677 µM
IC (TGI) (LNCaP): 0.0288 µM
GI50 (IGROV-1): 0.0342 µM
CC50 (IGROV-1): 1.06 µM
IC (TGI) (IGROV-1): 0.0693 µM
GI50 (LoVo-Dox): 0.333 µM
CC50 (LoVo-Dox): 12 µM
IC (TGI) (LoVo-Dox): 1.33 µM
GI50 (SK-BR-3): 0.00571 µM
CC50 (SK-BR-3): 0.422 µM
IC (TGI) (SK-BR-3): 0.0186 µM
GI50 (K-562): 0.00689 µM
CC50 (K-562): 12 µM
IC (TGI) (K-562): 0.0868 µM
GI50 (IGROV-ET): 0.0402 µM
CC50 (IGROV-ET): 12 µM
IC (TGI) (IGROV-ET): 0.0797 µM
GI50 (HeLa): 0.0271 µM
CC50 (HeLa): 0.104 µM
IC (TGI) (HeLa): 0.0531 µM
GI50 (HT-29): 0.0488 µM
CC50 (HT-29): 12 µM
IC (TGI) (HT-29): 0.571 µM
GI50 (LoVo): 0.023 µM
CC50 (LoVo): 0.101 µM
IC (TGI) (LoVo): 0.0482 µM
GI50 (A-549): 0.0302 µM
CC50 (A-549): 0.705 µM
IC (TGI) (A-549): 0.0687 µM

C=CCN1[C@@H]2c3c(cc(C)c(OC)c3O)C[C@H]1[C@H](C#N)N1C2[C@@H]2SC[C@]3(NCCc4cc(O)c(OC)cc43)C(=O)OC[C@H]1c1c3c(c(C)c(OC(=O)CCCCCCC)c12)OCO3 (some centres unmarked) [compound 50]
GI50 (HeLa-APL): 3.11 µM
CC50 (HeLa-APL): 11.3 µM
GI50 (PANC-1): 2.45 µM
CC50 (PANC-1): 11.3 µM
IC (TGI) (PANC-1): 11.3 µM
GI50 (SK-MEL-28): 2.53 µM
CC50 (SK-MEL-28): 11.3 µM
IC (TGI) (SK-MEL-28): 8.36 µM
GI50 (DU-145): 1.8 µM
CC50 (DU-145): 1130 µM
IC (TGI) (DU-145): 918 µM
GI50 (LNCaP): 0.948 µM
CC50 (LNCaP): 11.3 µM
IC (TGI) (LNCaP): 3.68 µM
GI50 (IGROV-1): 2.42 µM
CC50 (IGROV-1): 1130 µM
IC (TGI) (IGROV-1): 11.3 µM
GI50 (LoVo-Dox): 10.1 µM
CC50 (LoVo-Dox): 11.3 µM
IC (TGI) (LoVo-Dox): 11.3 µM
GI50 (SK-BR-3): 13.1 µM
CC50 (SK-BR-3): 11.3 µM
IC (TGI) (SK-BR-3): 11.3 µM
GI50 (K-562): 0.891 µM
CC50 (K-562): 11.3 µM
IC (TGI) (K-562): 11.3 µM
GI50 (IGROV-ET): 3.29 µM
CC50 (IGROV-ET): 11.3 µM
IC (TGI) (IGROV-ET): 11.3 µM
GI50 (HeLa): 3.75 µM
CC50 (HeLa): 11.3 µM
IC (TGI) (HeLa): 11.3 µM
GI50 (HT-29): 8.9 µM
CC50 (HT-29): 11.3 µM
IC (TGI) (HT-29): 11.3 µM
GI50 (LoVo): 4.94 µM
CC50 (LoVo): 11.3 µM
IC (TGI) (LoVo): 11.3 µM
GI50 (A-549): 3.76 µM
CC50 (A-549): 11.3 µM
IC (TGI) (A-549): 11.3 µM
